Measured values as given in patent US5153180A, “Fluorinated nucleosides and process for treating retrovirus infections therewith” (priority 1990, dated 1992).

Assays:
[1] = molecular target: RLV-associated reverse transcriptase; test: Inhibition of RLV-associated reverse transcriptase; assay type: biochemical, Rauscher murine leukemia virus
[2] = molecular target: T1, cellular DNA polymerase β (Bos taurus, UniProt Q27958); test: Effect on cellular DNA polymerase β; assay type: biochemical; conditions: enzyme purified from calf thymus; read-out: ID50 cellular polymerase β
T1 construct: purified from calf thymus; from tissue; host or cells: calf thymus
Source text: (§1) The strong inhibiting effect of 3'-fluoro-substituted deoxynucleotides against HIV-reverse transcriptase can be utilized therapeutically only if the cellular DNA polymerases, especially the DNA polymerase α which is required for the replication of the cellular DNA, remain substantially unaffected. […] The ID50 values for the DNA polymerase β responsible for cellular DNA repair vary between 1,8-15 μm. Both enzymes cellular DNA polymerase α and β were purified from calf thymus and tested according to the method of E. Matthes et al., Biomed. Biochim. Acta 44. K63 (1985).

[3] = molecular target: T2, cellular DNA polymerase α (Bos taurus, UniProt A0AAA9TD94); test: Effect on cellular DNA polymerase α; assay type: biochemical; conditions: enzyme purified from calf thymus; read-out: ID50 cellular polymerase α
T2 construct: purified from calf thymus; from tissue; host or cells: calf thymus
T2 sequence (A0AAA9TD94 1-1441): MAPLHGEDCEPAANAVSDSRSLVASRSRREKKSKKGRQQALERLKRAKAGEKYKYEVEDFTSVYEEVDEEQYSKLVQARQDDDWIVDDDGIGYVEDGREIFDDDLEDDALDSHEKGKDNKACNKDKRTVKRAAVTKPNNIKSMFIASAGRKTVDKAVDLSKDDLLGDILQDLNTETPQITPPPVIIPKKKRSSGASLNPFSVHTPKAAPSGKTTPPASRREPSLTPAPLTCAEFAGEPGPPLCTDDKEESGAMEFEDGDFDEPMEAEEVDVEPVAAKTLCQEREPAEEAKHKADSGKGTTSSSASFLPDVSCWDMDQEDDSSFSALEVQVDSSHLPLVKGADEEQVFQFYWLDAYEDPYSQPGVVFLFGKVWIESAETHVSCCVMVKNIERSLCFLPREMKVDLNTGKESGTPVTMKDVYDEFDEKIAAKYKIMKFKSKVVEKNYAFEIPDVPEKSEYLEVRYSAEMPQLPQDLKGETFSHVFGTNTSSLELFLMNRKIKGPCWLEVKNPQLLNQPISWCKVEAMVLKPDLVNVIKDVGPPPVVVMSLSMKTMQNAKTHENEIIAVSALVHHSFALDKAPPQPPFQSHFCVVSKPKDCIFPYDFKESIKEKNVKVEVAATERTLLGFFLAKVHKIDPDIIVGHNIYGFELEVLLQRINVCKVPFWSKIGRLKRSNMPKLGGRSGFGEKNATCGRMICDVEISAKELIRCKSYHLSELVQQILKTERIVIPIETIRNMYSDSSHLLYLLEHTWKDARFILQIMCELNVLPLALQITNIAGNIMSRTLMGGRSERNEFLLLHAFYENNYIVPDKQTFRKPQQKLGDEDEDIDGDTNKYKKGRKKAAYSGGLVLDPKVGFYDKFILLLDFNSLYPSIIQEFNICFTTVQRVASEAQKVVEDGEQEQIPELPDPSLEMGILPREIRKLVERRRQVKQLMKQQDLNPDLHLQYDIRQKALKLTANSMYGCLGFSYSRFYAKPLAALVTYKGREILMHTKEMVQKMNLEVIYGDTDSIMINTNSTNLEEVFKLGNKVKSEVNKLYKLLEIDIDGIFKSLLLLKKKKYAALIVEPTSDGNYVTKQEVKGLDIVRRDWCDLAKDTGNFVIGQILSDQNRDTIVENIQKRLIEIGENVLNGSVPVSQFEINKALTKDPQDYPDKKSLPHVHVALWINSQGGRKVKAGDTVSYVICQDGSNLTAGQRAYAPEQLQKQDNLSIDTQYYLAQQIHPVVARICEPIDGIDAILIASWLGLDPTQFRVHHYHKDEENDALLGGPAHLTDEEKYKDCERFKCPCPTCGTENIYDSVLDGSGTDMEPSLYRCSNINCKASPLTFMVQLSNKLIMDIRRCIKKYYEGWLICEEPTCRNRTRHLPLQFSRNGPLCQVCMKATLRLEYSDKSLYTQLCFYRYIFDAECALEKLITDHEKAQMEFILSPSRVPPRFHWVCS
Source text: as §1

[4] = molecular target: T3, HIV-associated reverse transcriptase (HIV-RT) (Human immunodeficiency virus type 1 group M subtype B, UniProt P04585); test: Inhibition of HIV-associated reverse transcriptase (polymerization of artificial templates); assay type: biochemical
T3 construct: HIV-associated reverse transcriptase (HIV-RT)
Source text: At first the triphosphates of some compounds according to formula I were investigated for their ability to inhibit the polymerization of artificial templates (such as polyAoligodT and polyColigodG) catalyzed by HIV-associated reverse transcriptase (HIV-RT) according to the method described by A. D. Hoffman et al., Virology 147, 326, 1985. […] FdTTP, FdUTP and FdGTP are among the strongest inhibitors found so far for HIV-RT. In comparison the ID50 for 3'-azidothymidinetriphosphate was estimated under our conditions to be about […].

[5] = test system: K-562 acute myeloic leukemia; test: Inhibition of proliferation of K-562 cells; assay type: cell-based; conditions: Homo sapiens, K562; dose required to reduce the cell number by 50%, K-562; read-out: CD50 (the source's name)
Source text: (§2) Originally FTdR was developed as a cytostatic agent (P. Langen et al., Acta biol. med. Germ. 23, 759, 1969; and U.S. Pat. No. 3,775,397) and, therefore, its cytostatic efficacy has been examined in extensive prior studies. […] Ehrlich-mouse-ascites-carcinoma cells (EMAC) represents an exception to that finding, and this is probably connected to its high capability of phosphorylation of FTdR, which is 10 times higher than in human cells. The fast reversibility of the cytostatic effects on EMAC cells was regarded as a special property of this compound (P. Langen et al., Europ. J. Cancer. 14. 349, 1978). The antiproliferative effect of FTdR and FddUrd, and in comparison thereto of N3 -TdR were tested on human cell lines with regard to a possible use in humans. […] When FTdR is compared to N3 -TdR. The effects are very similar, however somewhat lower in each case for N3 -TdR than for FTdR.
(§3) CD50 : inhibitory dose required to reduce the cell number by 50%

[6] = test system: K-37 immortalized T-cells; test: Inhibition of proliferation of K-37 cells; assay type: cell-based; conditions: Homo sapiens, T-cell; dose required to reduce the cell number by 50%, K-37; read-out: CD50 (the source's name)
Source text: as §2, §3

H9 immortalized T-cells = test: Inhibition of proliferation of H9 cells; assay type: cell-based; conditions: Homo sapiens, T-cell; dose required to reduce the cell number by 50%, H9; read-out: CD50 (the source's name)
Source text: as §2, §3

HIV = test: Inhibition of the cytopathic effect of HIV on MT-4 cells; assay type: cell-based; conditions: Human immunodeficiency virus 1, MT4, 144 h; MT-4 cells, 6 days of incubation; read-out: 50% antiviral dose (ED50)
Protocol: (§4) Under in vitro conditions immortalized T-lymphocytes can be killed within few days by the cytopathic effect of HIV. […] For this purpose about 20,000 MT-4 cells (Harada et al. Science 229, 563 (1985)) Were infected with HIV (titer: 0.04 m.o.i.) and incubated in the presence or absence of varying concentrations of compounds according to formula I, with 10% fetal calf serum (FCS) in 200 μl RPMI medium. After 6 days of incubation the viable cells were counted that were excluded from trypan blue staining.

[7] = test system: REH acute lymphatic leukemia; test: Inhibition of proliferation of REH cells; assay type: cell-based; conditions: Homo sapiens, dose required to reduce the cell number by 50%, read-out: CD50 (the source's name)
Source text: as §2, §3

in vitro = conditions: human, mt-4 cells
Protocol: as §4

| EC50 (HIV) [µM] | SMILES | ID50 RLV-associated reverse transcriptase [1] [µM] | RLV-associated RT less sensitive to the inhibitor than HIV-associated RT ([1]; ratio of ID50 values) [times] | IC50 [2] [µM] | IC50 [3] [µM] | mode of action (type of inhibition) [4] | IC50 ([4]; read-out: ID50 HIV-associated reverse transcriptase) [µM] | IC50 [5] [µM] | IC50 [6] [µM] | IC50 (H9 immortalized T-cells) [µM] | IC50 [7] [µM] | CC50 at 144 h (in vitro) [µM] |
| --- | --- | --- | --- | --- | --- | --- | --- | --- | --- | --- | --- | --- |
| – | Cc1cn([C@H]2C[C@H](F)[C@@H](COP(=O)(O)OP(=O)(O)OP(=O)(O)O)O2)c(=O)[nH]c1=O [FdTTP, 2'-3'-dideoxy-3'-fluorothymidine-5'-triphosphate] | 0.5 | 10 | 2.2 | > 200 | competitive type of inhibition | 0.05 | – | – | – | – | – |
| 0.275 | O=c1ccn([C@H]2C[C@H](F)[C@@H](CO)O2)c(=O)[nH]1 [FddUrd, 2'-3'-dideoxy-3'-fluorouridine] | – | – | – | – | – | – | > 1000 | > 1000 | > 2500 | > 9000 | 75 |
